Assay results: patent publication US20170000377A1, “SYSTEM AND METHOD FOR IMAGING FREE RADICALS” (THE GENERAL HOSPITAL CORPORATION, priority 2014, published 2017)

Assay: OMRI of rat after MCAO and reperfusion with injected TEMPOL
Design: species or system Wistar rat
Conditions: following ischemia/reperfusion in vivo, imaged with OMRI
Method: A 3D OMRI process can be performed using a variation of a balanced steady state free precession (b-SSFP) pulse sequence, for example, such as described in Sarracanie M et al. MRM 2013 DOI: 10.1002/mrm.24705. To achieve sensitivity of b-SSFP-based OMRI to free radical concentration, an NMR/ESR coil setup can be used. For one in vivo experiment, a single loop ESR coil 400 was arranged inside a solenoid NMR coil 402, as illustrate din FIG. 4. Under anesthesia, MCAO occlusion was performed in a 3 month old Wistar rat by insertion of filament via external carotid artery. Following 75 min MCAO and 60 min reperfusion, 3.6 μl/gbw of 300 μM TEMPOL was injected into the carotid artery after which the animal was sacrificed and OMRI imaging begun.
The OMRI enhancement image may be computed from a ratio of OMRI to MRI magnitude. […] The phase of the OMRI image in FIG. 6 provides sensitive contrast even in cases where the radical concentration is very low and the Overhauser enhancement may be small.

In the case of `CC1(C)CC(O)CC(C)(C)N1[O]` [TEMPOL, 4-hydroxy-2,2,6,6-tetramethylpiperidin-1-oxyl], the “crossing the BBB” value is reported as “crossing the BBB”.
